Assays:
[1] = ref 31 (ADBA), 32 (NPX), 33 (NBT), 34 (HF); cited from earlier work
[2] = RPTLC lipophilicity determination on liquid paraffin (LP) film; conditions: 5% LP film; for S (specific hydrophobic surface area): slope of Rm vs methanol fraction; for φo (isocratic chromatographic hydrophobicity index): φo = -Rmw/S, methanol modifier; for Rmw (basic lipophilicity parameter): y-intercept of Rm vs methanol fraction
Source text: (§1) Liquid paraffin in n-hexane (5% w/v) was used as coating solution of silica gel support, to produce the layer which was taken as benchmark. Thin film of liquid paraffin was placed on the silica surface by ascending development of the TLC plates in the coating solution and allowing the plates to air dry afterwards.
(§2) The optimal film thickness was designed by testing the alternative films against array of LP benchmark requirements and constraint. Using nabumetone as model compound and varying the concentration of organic modifier (methanol) in the mobile phase, a plot of linear regression of Rm against methanol fraction was made for LP and all alternative LO layers. Rm was obtained from the expression [drawing 1] where Rf is the chromatographic retardation factor [5]. Retention behavior of nabumetone on LP was compared with its behavior on the alternative LO layers by statistical comparison of the slope (S, specific hydrophobic surface area) and y-intercept, (Rmw, basic lipophilicity parameter) of the regression plot of Rm versus methanol fraction. The retention behavior is described by the regression equation: Rm = Sφ + Rmw (where φ is the methanol fraction). Plate development cycle time for a specific methanol fraction (0.5) was set as design constraint. This was compared by recording the time required for the mobile phase (50% methanol) to traverse 7 cm path length of the various silica-supported layers.
(§3) The engineered lipid film was validated by comparing its performance with the prior art; liquid paraffin film and octadecysilane (ODS) bonded phase, which was selected as reference.
(§4) The computational model employed is a transformation of the planar chromatographic retardation factor Rf according to the following equation: […]
(§5) Linear regression of the Rm values against the fraction of methanol organic modifier in the mobile phase was performed according to the equation: […]
(§6) S, is the specific hydrophobic surface area, while Rmw is the basic lipophilicity parameter calculated from the chromatographic data. The ultimate derived lipophilicity parameter of interest is the isocratic chromatographic hydrophobicity index (φo), which signifies the methanol fraction that will produce half-maximum solute migration on the chromatogram for each compound. […] Derived lipophilicity parameter (φo) values were correlated with Log P and several ChemSketch calculated molecular descriptors to provide quantitative structure property relationships (QSPR) as previously described.

[3] = RPTLC lipophilicity determination on octadecylsilane (ODS) bonded layer; conditions: for S (specific hydrophobic surface area): slope of Rm vs methanol fraction; for φo (isocratic chromatographic hydrophobicity index): φo = -Rmw/S, methanol modifier
Description: as §3, §4, §5, §6

[4] = RPTLC lipophilicity determination on silica-supported leucaena oil (LO) lipid film
Source text: as §1, §2, §3, §4, §5, §6

[5] = parameters: method as in PMID 17767395; conditions: clinical use; cited from earlier work
[6] = ODS layer, y-intercept of Rm vs methanol fraction
[7] = 3.75% LO film, slope of Rm vs methanol fraction
[8] = 3.75% LO film, y-intercept of Rm vs methanol fraction
[9] = 3.75% LO film, φo = -Rmw/S, methanol modifier

SMILES | Log P (octanol/water) [1] | S (specific hydrophobic surface area) [2] | φo (isocratic chromatographic hydrophobicity index) [2] | S (specific hydrophobic surface area) ([3]; ODS layer) | Rmw (basic lipophilicity parameter) [3, 6] | φo (isocratic chromatographic hydrophobicity index) ([3]; ODS layer) | S (specific hydrophobic surface area) [4, 7] | Rmw (basic lipophilicity parameter) [4, 8] | φo (isocratic chromatographic hydrophobicity index) [4, 9] | Rmw (basic lipophilicity parameter) [2] | also measured
Nc1c([N+](=O)[O-])cc(C(=O)O)cc1[N+](=O)[O-] [ADBA, 4-amino-3,5-dinitrobenzoic acid] | -1.50 | -5.99 | -0.081 | -1.41 | -0.102 | -0.073 | -8.84 | -0.646 | -0.073 |  | 
CCCCN(CCCC)CCC(O)c1cc2c(Cl)cc(Cl)cc2c2cc(C(F)(F)F)ccc12 (stereo not drawn) [Halofantrine, halofantrine] | 3.25 | -6.54 | 1.03 | -4.55 | 4.94 | 1.09 | -8.13 | 8.40 | 1.03 | 6.76 | 
COc1ccc2cc(CCC(C)=O)ccc2c1 [Nabumetone, nabumetone] | 3.27 | -3.48 | 0.70 | -3.13 |  | 0.89 | -3.95 | 2.58 | 0.66 | 2.43 | Rmw (basic lipophilicity parameter) [3]: 2.77; Rmw (basic lipophilicity parameter) ([4]; 1.25% LO film): 1.05; S (specific hydrophobic surface area) ([4]; 1.25% LO film): -2.33; φo (isocratic chromatographic hydrophobicity index) ([4]; 1.25% LO film): 0.45; Rmw (basic lipophilicity parameter) ([4]; 2.5% LO film): 1.94; S (specific hydrophobic surface area) ([4]; 2.5% LO film): -3.14; φo (isocratic chromatographic hydrophobicity index) ([4]; 2.5% LO film): 0.62; Rmw (basic lipophilicity parameter) ([4]; 5% LO film): 3.48; S (specific hydrophobic surface area) ([4]; 5% LO film): -4.67; φo (isocratic chromatographic hydrophobicity index) ([4]; 5% LO film): 0.75
CC(C)(C)c1ccc(C(O)CCCN2CCC(C(O)(c3ccccc3)c3ccccc3)CC2)cc1 (stereo not drawn) [Terfenadine, terfenadine] |  |  |  |  |  |  |  |  |  |  | Cardiotoxicity (QT prolongation) [5]: withdrawn from clinical use because of cardiotoxicity

From PMC2745359, “Engineering and validation of a novel lipid thin film for biomembrane modeling in lipophilicity determination of drugs and xenobiotics” (Journal of Biological Engineering, 2009)
